Tested on: ICR mice
Assay: Thromboplastin-induced fatal thromboembolism in mice
Format: in vivo
Details: N=10
Protocol: The mice were challenged with 25 mg/kg thromboplastin (Sigma, St. Louis, Mo.) via a bolus i.v. injection in to the tail vein as previously described (Sato et al., 1998). At the time of thromboembolism-related death, after the thromboplastin injection or elective sacrifice at 48 hours using ketamine/xylazine, all mice were perfused with PBS followed by 4% phosphate buffered formalin. PBS and formalin were pumped through the left ventricle of the heart and allowed to exit through a 3 mm incision through the anterior wall of the right ventricle.

CC(=O)CC(c1ccccc1)c1c(O)c2ccccc2oc1=O (centres unmarked) [warfarin, reference compound]
probability of event-free survival after thromboplastin challenge (warfarin 3 mg/kg i.p. 18 hours prior): 10±9% | median survival time (warfarin 3 mg/kg): 5.3 min
